Counter-ions that a name gives are not always drawn.

Experiment [1] deals with T1, human His-PIM1 [2-313] (Homo sapiens, UniProt P11309).
T1 construct: purified human His-PIM1 [2-313] enzyme; His (N); purchased University of Dundee, Scotland; host or cells: baculovirus system
Kind of experiment: PIM1 in-vitro mobility shift assay (Caliper LC3000, FL-Ahx-Bad phosphorylation). The settings on record: 1.5 h; percent inhibition at 0.3 uM compound; read-out: PIM1 % I at 0.3 uM. Format: biochemical. The method in brief:
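Compound preincubated 20 min at 25 °C with 2.4 nM PIM1, 3.6 µM FL-Ahx-Bad peptide and 240 µM ATP (1.2× mix concentrations). Reaction started with 24 mM MgCl2 mix, run 90 min at 25 °C, EDTA-stopped. Phospho/unphospho peptide separated by microfluidic mobility shift; percent inhibition from ratiometric turnover.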

In experiment [2] the target is T2, human His-PIM2 [23-299] (Homo sapiens, UniProt Q9P1W9).
T2 construct: purified human His-PIM2 [23-299] enzyme; His (N); host or cells: E. coli
T2 sequence (Q9P1W9 23-299): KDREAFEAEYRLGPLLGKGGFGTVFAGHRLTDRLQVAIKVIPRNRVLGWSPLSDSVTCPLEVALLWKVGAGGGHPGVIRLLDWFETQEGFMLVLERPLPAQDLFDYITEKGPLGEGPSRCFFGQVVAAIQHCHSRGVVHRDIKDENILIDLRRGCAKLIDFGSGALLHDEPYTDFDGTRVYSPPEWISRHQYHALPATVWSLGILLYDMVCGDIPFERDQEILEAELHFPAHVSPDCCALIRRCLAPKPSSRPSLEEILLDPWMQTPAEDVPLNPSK
Briefly: PIM2 in-vitro mobility shift assay (Caliper LC3000, FL-Ahx-Bad phosphorylation). The format is biochemical. Particulars: 1.5 h; percent inhibition at 0.3 uM compound; read-out: PIM2 % I at 0.3 uM.

T1 sequence (P11309 2-313): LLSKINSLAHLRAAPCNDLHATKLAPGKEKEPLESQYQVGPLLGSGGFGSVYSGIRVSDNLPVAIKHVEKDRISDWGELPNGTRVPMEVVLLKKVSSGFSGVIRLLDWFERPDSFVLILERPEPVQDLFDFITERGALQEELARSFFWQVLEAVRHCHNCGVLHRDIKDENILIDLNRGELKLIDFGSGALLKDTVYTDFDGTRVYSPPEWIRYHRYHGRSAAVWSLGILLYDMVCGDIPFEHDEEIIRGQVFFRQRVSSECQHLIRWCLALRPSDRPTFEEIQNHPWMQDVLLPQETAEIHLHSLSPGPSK

As to `COc1cc(/C=C2\SC(=O)NC2=O)c(N2CCC(NCCO)C2)cc1OC` (centres unmarked) [Example 132, (Z)-5-(2-(3-(2-hydroxyethylamino)pyrrolidin-1-yl)-4,5-dimethoxybenzylidene)thiazolidine-2,4-dione], the inhibition at 0.3 µM in experiment [1] worked out at 93%; in experiment [2], 88.1%.
On the same counts, the results for `COc1cc(/C=C2\SC(=O)NC2=O)c(N2CCCC2)cc1OC` [Example 46, (5Z)-5-(4,5-dimethoxy-2-pyrrolidin-1-ylbenzylidene)-1,3-thiazolidine-2,4-dione] are 13.4% and 15.7%.
In the same order, the values of `C[C@@H]1CN(c2ccc(C(F)(F)F)cc2/C=C2\SC(=O)NC2=O)C[C@H](C)N1` [Example 34, (Z)-5-(2-((3S,5R)-3,5-dimethylpiperazin-1-yl)-5-(trifluoromethyl)benzylidene)thiazolidine-2,4-dione hydrochloride] are more than 95% and 39.3%.
On the same counts, the results for `CCCN(CCC)[C@@H]1CCCN(c2c(Cl)cccc2/C=C2\SC(=O)NC2=O)C1` [Example 148, (R,Z)-5-(3-chloro-2-(3-(dipropylamino)piperidin-1-yl)benzylidene)thiazolidine-2,4-dione] are 91.5% and 60.8%.
Turning to `CC(C)N1CCN(c2c(Cl)cc(C(F)(F)F)cc2/C=C2\SC(=O)NC2=O)CC1` [Example 11], the inhibition at 0.3 µM in experiment [1] came out at 89.4%; in experiment [2], 17.9%.
Turning to `CCOc1cccc(/C=C2\SC(=O)NC2=O)c1N1CCC[C@@H](N)C1` [Example 122I, (R,Z)-5-(2-(3-aminopiperidin-1-yl)-3-ethoxybenzylidene)thiazolidine-2,4-dione hydrochloride], the inhibition at 0.3 µM in experiment [1] and in experiment [2] was more than 95% throughout.
As for `Cn1ccc2ccc(/C=C3\SC(=O)NC3=O)cc21` [Example 75, (5Z)-5-[(1-methyl-1H-indol-6-yl)methylene]-1,3-thiazolidine-2,4-dione], the inhibition at 0.3 µM was more than 95% in experiment [1] and 69.5% in experiment [2].
On the same counts, the results for `CN(C)C1CCN(c2ccc([N+](=O)[O-])cc2/C=C2\SC(=O)NC2=O)C1` (centres unmarked) [Example 56, (Z)-5-(2-(3-(dimethylamino)pyrrolidin-1-yl)-5-nitrobenzylidene)thiazolidine-2,4-dione hydrochloride] are 90.7% and 33.5%.
With `O=C1NC(=O)/C(=C/c2cc(C(F)(F)F)cc(Cl)c2N2CCCNCC2)S1` [Example 5A], the inhibition at 0.3 µM is more than 95% in experiment [1] and 79.9% in experiment [2].
As to `N#CCC(=O)N[C@H]1CCN(c2c(Cl)cccc2/C=C2\SC(=O)NC2=O)C1` [Example 146], the inhibition at 0.3 µM in experiment [1] is 88.9%; in experiment [2] it was 48.5%.
On the same counts, the results for `CN(C)[C@H]1CCN(c2ccc(F)cc2C=C2SC(=O)NC2=O)C1` [Example 84K, (S)-5-(2-(3-(dimethylamino)pyrrolidin-1-yl)-5-fluorobenzylidene)thiazolidine-2,4-dione] are more than 95% and 90.8%.
In the same order, the values of `NCCC(=O)N1CCN(c2c(Cl)cccc2/C=C2\SC(=O)NC2=O)CC1` [Example 95, (Z)-5-(2-(4-(3-aminopropanoyl)piperazin-1-yl)-3-chlorobenzylidene)thiazolidine-2,4-dione hydrochloride] are more than 95% and more than 95%.
On the same counts, the results for `COc1cc(/C=C2\SC(=O)NC2=O)c(-c2cccnc2)cc1OC` [Example 65, (Z)-5-(4,5-dimethoxy-2-(pyridin-3-yl)benzylidene)thiazolidine-2,4-dione] are 45.3% and 18.9%.
Consider `N[C@H]1CN(c2c(Cl)cccc2/C=C2\SC(=O)NC2=O)C[C@@H]1O` [Example 122T, (Z)-5-(2-((3S,4S)-3-amino-4-hydroxypyrrolidin-1-yl)-3-chlorobenzylidene)thiazolidine-2,4-dione hydrochloride], for which the inhibition at 0.3 µM in experiment [1] and in experiment [2] was more than 95% throughout.
Take `O=C1NC(=O)/C(=C/c2ccccc2N2CCOCC2)S1` [Example 82, (5Z)-5-(2-morpholin-4-ylbenzylidene)-1,3-thiazolidine-2,4-dione]: the inhibition at 0.3 µM in experiment [1] stood at 87.4%; in experiment [2] it was 58.2%.
In the same order, the values of `CC(C)(C)OC(=O)N1CCN(c2ccc(C(F)(F)F)cc2/C=C2\SC(=O)NC2=O)CC1` [Example 55, (Z)-tert-butyl 4-(2-((2,4-dioxothiazolidin-5-ylidene)methyl)-4-(trifluoromethyl)phenyl)piperazine-1-carboxylate] are 11% and less than 5%.
In the same order, the values of `N[C@@H]1CCCN(c2c(/C=C3\SC(=O)NC3=O)cccc2OC2CCCC2)C1` [Example 122AC, (R,Z)-5-(2-(3-aminopiperidin-1-yl)-3-(cyclopentyloxy)benzylidene)thiazolidine-2,4-dione hydrochloride] are more than 95% and more than 95%.
Consider `CC(=O)NCC(=O)N[C@H]1CCN(c2c(Cl)cccc2/C=C2\SC(=O)NC2=O)C1` [Example 147], for which the figures for the inhibition at 0.3 µM in experiment [1] and in experiment [2] were 74.3% and 36.4%, respectively.
Turning to `COc1cccc(/C=C2\SC(=O)NC2=O)c1N1CC[C@H](NCCCN)C1` [Example 124], the inhibition at 0.3 µM in experiment [1] and in experiment [2] was more than 95% throughout.
With `N[C@@H]1CCCN(c2c(Cl)cccc2/C=C2\SC(=O)NC2=O)C1` [Example 122D, (R,Z)-5-(2-(3-aminopiperidin-1-yl)-3-chlorobenzylidene)thiazolidin-2,4-dione hydrochloride], the inhibition at 0.3 µM in experiment [1] and in experiment [2] was more than 95% each time.
For the compound `CNCCNC1CCN(c2cc(OC)c(OC)cc2/C=C2\SC(=O)NC2=O)C1` (centres unmarked) [Example 113, (Z)-5-(4,5-dimethoxy-2-(3-(2-(methylamino)ethylamino)pyrrolidin-1-yl)benzylidene)thiazolidine-2,4-dione hydrochloride], the inhibition at 0.3 µM in experiment [1] and in experiment [2] was more than 95% throughout.
Consider `COc1ccc(OCCN2CCCCC2)c(/C=C2\SC(=O)NC2=O)c1` [Example 61, (Z)-5-(5-methoxy-2-(2-(piperidin-1-yl)ethoxy)benzylidene)thiazolidine-2,4-dione], for which the inhibition at 0.3 µM came to 81.8% in experiment [1] and 28.1% in experiment [2].
On the same counts, the results for `O=C(CN1CC[S+]([O-])CC1)N[C@H]1CCN(c2c(Cl)cccc2/C=C2\SC(=O)NC2=O)C1` [Example 142] are 86.1% and 75.2%.
On the same counts, the results for `O=C1NC(=O)/C(=C/c2cc(C(F)(F)F)cc(Cl)c2N2CCC(CCO)CC2)S1` [Example 13] are less than 5% and less than 5%.
In the same order, the values of `N[C@H]1CCN(c2c(Cl)cccc2/C=C2\SC(=O)NC2=O)C1` [Example 86, (S,Z)-5-(2-(3-aminopyrrolidin-1-yl)-3-chlorobenzylidene)thiazolidine-2,4-dione hydrochloride] are more than 95% and more than 95%.
For the compound `Cn1nnc2cc(/C=C3\SC(=O)NC3=O)ccc21` [Example 73, (5Z)-5-[(1-methyl-1H-1,2,3-benzotriazol-5-yl)methylene]-1,3-thiazolidine-2,4-dione], the inhibition at 0.3 µM in experiment [1] and in experiment [2] was less than 5% each time.
Turning to `N[C@H]1CCN(c2cc(Cl)ccc2/C=C2\SC(=O)NC2=O)C1` [Example 85, (S,Z)-5-(2-(3-aminopyrrolidin-1-yl)-4-chlorobenzylidene)thiazolidine-2,4-dione hydrochloride], the inhibition at 0.3 µM in experiment [1] is more than 95%; in experiment [2] it was 82.4%.
`Cn1ccc(C(=O)N[C@H]2CCN(c3c(Cl)cccc3/C=C3\SC(=O)NC3=O)C2)n1` [Example 137]: the inhibition at 0.3 µM in experiment [1] was determined as 55.1%; in experiment [2] it was 18.6%.
With `O=C1NC(=O)/C(=C/c2ccc[nH]c2=O)S1` [Example 70, (Z)-5-((2-oxo-1,2-dihydropyridin-3-yl)methylene)thiazolidine-2,4-dione], the inhibition at 0.3 µM in experiment [1] and in experiment [2] was less than 5% throughout.
Regarding `Cc1noc(C2CCN(c3c(Cl)cc(C(F)(F)F)cc3/C=C3\SC(=O)NC3=O)CC2)n1` [Example 9], the inhibition at 0.3 µM in experiment [1] was 6.9%; in experiment [2], less than 5%.
In the same order, the values of `O=C1NC(=O)/C(=C/c2cc(C(F)(F)F)cc(Cl)c2N2CCN(CC3CC3)CC2)S1` [Example 21] are 82.9% and 15.8%.
On the same counts, the results for `O=C1NC(=O)/C(=C/c2cccc(OCCCN3CCCCC3)c2)S1` [Example 84D, (Z)-5-(3-(3-(piperidin-1-yl)propoxy)benzylidene)thiazolidine-2,4-dione] are 27.8% and less than 5%.
In the same order, the values of `COc1cc(/C=C2\SC(=O)NC2=O)c(N2CC[C@H](N(C)C)C2)cc1OC` [Example 40, (S,Z)-5-(2-(3-(dimethylamino)pyrrolidin-1-yl)-4,5-dimethoxybenzylidene)thiazolidine-2,4-dione] are more than 95% and 89.8%.
Turning to `O=C1NC(=O)/C(=C/c2cc(C(F)(F)F)cc(Cl)c2N2CCN(C3CCCC3)CC2)S1` [Example 6, (Z)-5-(3-chloro-2-(4-cyclopentylpiperazin-1-yl)-5 (trifluoromethyl)benzylidene)thiazolidine-2,4-dione hydrochloride], the inhibition at 0.3 µM in experiment [1] turned out to be 79.4%; in experiment [2], 9.5%.

(Values after US8901307B2, “Chemical compounds 251” (AstraZeneca AB, priority 2008, dated 2014).)
